Laboratory results published in the supplement of paper PMC10307832.

Columns and labels:
Test in all cases: relative viability (nuclei count vs DMSO), 5 days (fraction); higher = more cells survive
Midostaurin + Foretinib = compound: CO[C@@H]1[C@H](N(C)C(=O)c2ccccc2)C[C@H]2O[C@]1(C)n1c3ccccc3c3c4c(c5c6ccccc6n2c5c31)C(=O)NC4 [Midostaurin] + COc1cc2c(Oc3ccc(NC(=O)C4(C(=O)Nc5ccc(F)cc5)CC4)cc3F)ccnc2cc1OCCCN1CCOCC1 [Foretinib] (partner 0.25 µM)
Summary of the method: (§1)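 The day after seeding in 1536-well plates, lung cancer cell lines were treated by pin tool with a single drug, or with a fixed anchor-drug dose together with five library-drug doses (not always all listed) in √10 steps. After 5 days, a combined fix-and-stain solution (final 0.05% Triton X-100, 1% formaldehyde, 1 ug/ml Hoechst) was added. Nuclei counted on 4× images gave relative viability as treated counts over vehicle counts, reported as the median of duplicate plates.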

[1] = compound: COc1cc(-c2nn([C@H]3CC[C@H](N4CCN(C(C)=O)CC4)CC3)c3ncnc(N)c23)ccc1NC(=O)c1cc2ccccc2n1C + CC(=O)c1c(C)c2cnc(Nc3ccc(N4CCNCC4)cn3)nc2n(C2CCCC2)c1=O [Palbociclib] (partner 0.5 µM)
Summary of the method: as §1

[2] = compound: COc1cc(-c2nn([C@H]3CC[C@H](N4CCN(C(C)=O)CC4)CC3)c3ncnc(N)c23)ccc1NC(=O)c1cc2ccccc2n1C + COc1cccc2cc(-c3nc([C@H]4CC[C@H](C(=O)O)CC4)n4ncnc(N)c34)[nH]c12 [OSI-027] (partner 0.5 µM)
Summary of the method: as §1

[3] = compound: COc1cc(-c2nn([C@H]3CC[C@H](N4CCN(C(C)=O)CC4)CC3)c3ncnc(N)c23)ccc1NC(=O)c1cc2ccccc2n1C + CS(=O)(=O)N1CCN(Cc2cc3nc(-c4cccc5[nH]ncc45)nc(N4CCOCC4)c3s2)CC1 [Pictilisib] (partner 1 µM)
Summary of the method: as §1

[4] = compound: COc1cc(-c2nn([C@H]3CC[C@H](N4CCN(C(C)=O)CC4)CC3)c3ncnc(N)c23)ccc1NC(=O)c1cc2ccccc2n1C + O=C(c1cc(Cc2n[nH]c(=O)c3ccccc23)ccc1F)N1CCN(C(=O)C2CC2)CC1 [Olaparib] (partner 8 µM)
Summary of the method: as §1

Cell Line	relative viability (Midostaurin + Foretinib; first compound 0.01 µM)	relative viability (Midostaurin + Foretinib; first compound 0.03162 µM)	relative viability (Midostaurin + Foretinib; first compound 0.1 µM)	relative viability (Midostaurin + Foretinib; first compound 0.3162 µM)	relative viability ([1]; first compound 0.0128 µM)	relative viability ([1]; first compound 0.04048 µM)	relative viability ([1]; first compound 0.128 µM)	relative viability ([1]; first compound 1.28 µM)	relative viability ([2]; first compound 0.0128 µM)	relative viability ([2]; first compound 0.04048 µM)	relative viability ([2]; first compound 0.128 µM)	relative viability ([2]; first compound 1.28 µM)	relative viability ([3]; first compound 0.0128 µM)	relative viability ([3]; first compound 0.04048 µM)	relative viability ([3]; first compound 0.128 µM)	relative viability ([3]; first compound 1.28 µM)	relative viability ([4]; first compound 0.0128 µM)	relative viability ([4]; first compound 0.04048 µM)	relative viability ([4]; first compound 0.128 µM)	relative viability ([4]; first compound 1.28 µM)
LCLC-103H	0.729	0.661	0.656	0.791	0.509	0.474	0.433	0.503	0.47	0.469	0.493	0.417	0.656	0.691	0.571	0.49	0.851	0.79	0.615	0.773
LK-2	1.19	1.36	0.955	1.13	0.698	0.858	0.834	0.518	0.267	0.187	0.198	0.184	0.557	0.543	0.55	0.375	0.779	0.674	0.6	0.385
LOU-NH91	0.976	0.903	1.01	1.01	0.536	0.533	0.529	0.454	0.729	0.803	0.731	0.745	0.517	0.555	0.511	0.509	0.924	1.01	0.902	0.831
LU99A	0.708	0.854	0.695	0.783	0.419	0.435	0.389	0.377	0.307	0.323	0.329	0.312	0.357	0.385	0.391	0.326	0.284	0.29	0.286	0.263
LXF-289	0.967	0.941	0.897	0.988	0.673	0.648	0.549	0.706	0.875	0.76	0.71	0.652	0.827	0.586	0.775	0.509	1.17	1.08	1.11	0.982
NCI-H23	0.685	1.23	0.648	0.531	0.47	0.519	0.508	0.4	0.646	0.368	0.578	0.415	0.36	0.298	0.403	0.457	0.323	0.321	0.339	0.292
NCI-H322M	1.04	0.923	1.07	1.14	0.426	0.516	0.434	0.394	0.584	0.509	0.5	0.526	0.521	0.449	0.51	0.463	0.818	0.801	0.693	0.691
NCI-H358	0.821	0.784	0.706	0.662	0.145	0.137	0.126	0.115	0.645	0.618	0.508	0.28	0.395	0.331	0.277	0.249	0.587	0.513	0.526	0.374
NCI-H441	0.808	0.848	0.858	0.693	0.248	0.167	0.228	0.152	0.637	0.531	0.763	0.702	0.551	0.43	0.602	0.421	0.554	0.51	0.622	0.624
NCI-H460	1.02	0.932	1	0.95	0.17	0.133	0.148	0.153	0.609	0.584	0.623	0.395	0.164	0.314	0.345	0.368	0.48	0.47	0.312	0.386
NCI-H520	0.68	0.715	0.661	0.688	0.197	0.227	0.206	0.12	0.191	0.252	0.201	0.174	0.293	0.337	0.247	0.216	0.388	0.398	0.286	0.265
NCI-H647	1.14	1.2	1.2	1.14	0.391	0.382	0.4	0.216	0.594	0.656	0.617	0.435	0.41	0.456	0.257	0.28	0.646	0.567	0.514	0.373
NCI-H650	0.959	0.95	1.01	0.767	0.35	0.385	0.3	0.339	0.56	0.798	0.524	0.458	0.944	0.96	0.944	0.866	0.418	0.453	0.407	0.468
NCI-H661	0.903	0.847	1.02	1.04	0.421	0.436	0.42	0.419	0.721	0.722	0.691	0.575	0.39	0.344	0.392	0.254	0.817	0.843	0.724	0.763
NCI-H727	1.11	0.932	0.829	0.846	0.615	–	0.553	0.583	0.591	–	0.477	0.47	0.355	–	0.401	0.301	0.674	–	0.819	0.78
